Assay results taken from US7642255B2, “Compounds and compositions as protein kinase inhibitors” (IRM LLC, priority 2004, dated 2010).

Experiments:
Format in all cases: cell-based
wild type Bcr-abl = molecular target: T1, wild type Bcr-abl (Homo sapiens, UniProt P00519); assay: Antiproliferative effect on Ba/F3 cells expressing wild type BCR-Abl
T1 construct: BCR (N-terminal fusion partner); expressed in transfected cells; host or cells: Ba/F3 cells; the other entry of the earlier key: BCR (P11274, Breakpoint cluster region protein)
Protocol: (§1) 32D-p210 cells are plated into 96 well TC plates at a density of 15,000 cells per well. 50 μL of two fold serial dilutions of the test compound (Cmax is 40 μM) are added to each well (STI571 is included as a positive control). After incubating the cells for 48 hours at 37° C., 5% CO2, 15 μL of MTT (Promega) is added to each well and the cells are incubated for an additional 5 hours. The optical density at 570 nm is quantified spectrophotometrically and IC50 values, the concentration of compound required for 50% inhibition, determined from a dose response curve.
(§2) Compounds of the invention are tested for their antiproliferative effect on Ba/F3 cells expressing either wild type or the mutant forms of BCR-Abl (G250E, E255V, T3151, F317L, M351T) that confers resistance or diminished sensitivity to STI571. The antiproliferative effect of these compounds on the mutant-BCR-Abl expressing cells and on the non transformed cells were tested at 10, 3.3, 1.1 and 0.37 μM as described above (in media lacking IL3). The IC50 values of the compounds lacking toxicity on the untransformed cells were determined from the dose response curves obtained as describe above.

G250E Bcr-abl = molecular target: T2, G250E Bcr-abl (Homo sapiens, UniProt P00519, G250E); assay: Antiproliferative effect on Ba/F3 cells expressing mutant BCR-Abl G250E
T2 construct: BCR (N-terminal fusion partner); expressed in transfected cells; host or cells: Ba/F3 cells; the other entry of the earlier key: BCR (P11274, Breakpoint cluster region protein)
Protocol: as §1, §2

E255V Bcr-abl = molecular target: T3, E255V Bcr-abl (Homo sapiens, UniProt P00519, E255V); assay: Antiproliferative effect on Ba/F3 cells expressing mutant BCR-Abl E255V
T3 construct: BCR (N-terminal fusion partner); expressed in transfected cells; host or cells: Ba/F3 cells; the other entry of the earlier key: BCR (P11274, Breakpoint cluster region protein)
Protocol: as §1, §2

T3151 Bcr-abl = molecular target: T4, T3151 Bcr-abl (Homo sapiens, UniProt P00519, T315I); assay: Antiproliferative effect on Ba/F3 cells expressing mutant BCR-Abl T3151
T4 construct: BCR (N-terminal fusion partner); expressed in transfected cells; host or cells: Ba/F3 cells
Protocol: as §1, §2

F317L Bcr-abl = molecular target: T5, F317L Bcr-abl (Homo sapiens, UniProt P00519, F317L); assay: Antiproliferative effect on Ba/F3 cells expressing mutant BCR-Abl F317L
T5 construct: BCR (N-terminal fusion partner); expressed in transfected cells; host or cells: Ba/F3 cells; the other entry of the earlier key: BCR (P11274, Breakpoint cluster region protein)
Protocol: as §1, §2

M351T Bcr-abl = molecular target: T6, M351T Bcr-abl (Homo sapiens, UniProt P00519, M351T); assay: Antiproliferative effect on Ba/F3 cells expressing mutant BCR-Abl M351T
T6 construct: BCR (N-terminal fusion partner); expressed in transfected cells; host or cells: Ba/F3 cells; the other entry of the earlier key: BCR (P11274, Breakpoint cluster region protein)
Protocol: as §1, §2

Q: `Cc1ccc(NC(=O)c2cccc(C(F)(F)F)c2)cc1N1Cc2cnc(Nc3cccc(N)c3)nc2N(C)C1=O` [Example 2, N-{3-[7-(3-Amino-phenylamino)-1-methyl-2-oxo-1,4-dihydro-2H-pyrimido[4,5-d]pyrimidin-3-yl]-4-methyl-phenyl}-3-trifluoromethyl-benzamide] was tested. Which IC50 (wild type Bcr-abl) did it give?
A: 5 nM

Q: What about the IC50 (G250E Bcr-abl) of the same molecule?
A: 2 nM

Q: And the IC50 (E255V Bcr-abl)?
A: 5 nM

Q: And the IC50 (T3151 Bcr-abl)?
A: 3 nM

Q: What about the IC50 (F317L Bcr-abl) of the same molecule?
A: 5 nM

Q: What about the IC50 (M351T Bcr-abl) of the same molecule?
A: 5 nM
